How the values were obtained:
αvβ6 = αvβ6 (Homo sapiens, UniProt P06756+P18564); experiment: Solid Phase Integrin αvβ6 Assay; assay type: binding
Summary of the method: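 Inhibition of αvβ6 binding to immobilized recombinant TGFb1-LAP (1 μg/mL coating), 1 h at room temperature with 1 mM MnCl2 in BSA/TBST buffer, integrin diluted to 0.2 μg/mL before addition. Streptavidin-HRP/TMB read-out; four-parameter logistic fitting gave IC50.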

αvβ1 = αvβ1 (Homo sapiens, UniProt P05556+P06756); experiment: Solid Phase Integrin αvβ1 Assay; assay type: binding
Sequence of αvβ1 (P06756 31-992 limits assumed): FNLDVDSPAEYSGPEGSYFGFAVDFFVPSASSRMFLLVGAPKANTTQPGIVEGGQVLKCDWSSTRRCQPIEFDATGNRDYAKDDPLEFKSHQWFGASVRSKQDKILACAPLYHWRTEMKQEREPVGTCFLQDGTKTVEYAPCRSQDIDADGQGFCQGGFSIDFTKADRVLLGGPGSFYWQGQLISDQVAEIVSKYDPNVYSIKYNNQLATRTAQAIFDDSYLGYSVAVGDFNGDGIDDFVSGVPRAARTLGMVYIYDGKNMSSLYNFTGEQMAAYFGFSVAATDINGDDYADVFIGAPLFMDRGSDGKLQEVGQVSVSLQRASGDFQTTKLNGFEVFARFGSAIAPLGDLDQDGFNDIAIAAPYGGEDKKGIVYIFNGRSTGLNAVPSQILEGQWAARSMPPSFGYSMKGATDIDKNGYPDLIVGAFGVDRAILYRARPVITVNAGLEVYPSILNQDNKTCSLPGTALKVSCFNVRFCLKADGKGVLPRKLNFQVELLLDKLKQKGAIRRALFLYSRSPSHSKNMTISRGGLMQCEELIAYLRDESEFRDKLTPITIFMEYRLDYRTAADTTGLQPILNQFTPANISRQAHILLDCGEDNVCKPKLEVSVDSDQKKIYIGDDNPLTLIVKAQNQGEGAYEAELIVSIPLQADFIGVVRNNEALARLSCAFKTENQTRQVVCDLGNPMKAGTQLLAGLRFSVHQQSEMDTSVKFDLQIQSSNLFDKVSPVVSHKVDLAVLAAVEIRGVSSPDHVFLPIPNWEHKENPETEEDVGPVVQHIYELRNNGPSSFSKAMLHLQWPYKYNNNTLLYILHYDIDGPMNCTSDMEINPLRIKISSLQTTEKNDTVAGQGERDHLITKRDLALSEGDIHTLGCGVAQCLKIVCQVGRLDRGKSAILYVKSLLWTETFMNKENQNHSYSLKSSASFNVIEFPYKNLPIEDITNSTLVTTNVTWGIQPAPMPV
Sequence of αvβ1 (P05556 21-728 limits assumed): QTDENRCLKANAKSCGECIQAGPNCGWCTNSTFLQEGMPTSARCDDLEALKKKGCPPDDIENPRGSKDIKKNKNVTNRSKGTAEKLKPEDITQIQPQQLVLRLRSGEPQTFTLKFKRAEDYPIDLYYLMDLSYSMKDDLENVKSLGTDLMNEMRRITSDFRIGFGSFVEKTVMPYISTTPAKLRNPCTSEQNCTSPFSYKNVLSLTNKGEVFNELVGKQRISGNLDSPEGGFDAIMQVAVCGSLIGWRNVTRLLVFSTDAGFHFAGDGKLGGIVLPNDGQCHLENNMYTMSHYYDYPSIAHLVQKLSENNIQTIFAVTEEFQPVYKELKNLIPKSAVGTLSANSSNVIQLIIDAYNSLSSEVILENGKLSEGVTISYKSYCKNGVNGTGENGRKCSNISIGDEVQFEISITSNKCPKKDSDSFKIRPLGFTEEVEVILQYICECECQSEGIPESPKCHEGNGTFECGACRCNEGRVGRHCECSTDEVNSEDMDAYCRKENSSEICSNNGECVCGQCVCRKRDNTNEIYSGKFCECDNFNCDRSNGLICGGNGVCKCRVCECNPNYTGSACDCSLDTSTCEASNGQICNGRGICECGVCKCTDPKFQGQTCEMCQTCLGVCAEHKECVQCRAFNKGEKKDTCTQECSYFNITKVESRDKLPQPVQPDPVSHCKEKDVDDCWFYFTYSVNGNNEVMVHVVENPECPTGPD
Summary of the method: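 Compound competes for αvβ1 binding to immobilized TGFb1-LAP (1 µg/mL coat) in Mn2+ (1 mM MnCl2), 2% BSA binding buffer over 90 min at room temperature, integrin added at 0.2 µg/mL. Read-out: streptavidin-HRP/TMB; IC50 from Levenberg-Marquardt four-parameter fit.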

Sequence of αvβ6 (P06756 31-992 limits assumed): as the sequence (P06756 31-992 limits assumed) above
Sequence of αvβ6 (P18564 22-707 limits assumed): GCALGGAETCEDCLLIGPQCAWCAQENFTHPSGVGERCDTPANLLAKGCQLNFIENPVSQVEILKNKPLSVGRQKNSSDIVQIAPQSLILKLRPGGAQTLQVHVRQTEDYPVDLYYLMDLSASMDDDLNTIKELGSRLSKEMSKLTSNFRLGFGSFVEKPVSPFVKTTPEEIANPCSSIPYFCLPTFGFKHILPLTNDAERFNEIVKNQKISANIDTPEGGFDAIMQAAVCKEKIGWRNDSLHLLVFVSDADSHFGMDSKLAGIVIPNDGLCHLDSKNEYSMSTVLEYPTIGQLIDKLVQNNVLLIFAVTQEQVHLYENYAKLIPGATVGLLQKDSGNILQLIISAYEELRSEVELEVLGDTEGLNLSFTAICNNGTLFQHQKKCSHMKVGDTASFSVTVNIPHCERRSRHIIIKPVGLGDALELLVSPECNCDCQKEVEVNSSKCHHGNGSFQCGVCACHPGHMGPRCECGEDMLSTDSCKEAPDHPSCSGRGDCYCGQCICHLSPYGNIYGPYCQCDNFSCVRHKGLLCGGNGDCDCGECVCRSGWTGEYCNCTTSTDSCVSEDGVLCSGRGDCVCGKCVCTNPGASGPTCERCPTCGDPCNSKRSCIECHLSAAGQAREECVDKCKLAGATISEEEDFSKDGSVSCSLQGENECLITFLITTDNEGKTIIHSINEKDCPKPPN

SMILES | IC50 (αvβ6) | IC50 (αvβ1)
O=C(NC[C@H](C(=O)O)c1cccc2cn([C@@H]3CCC(F)(F)C3)nc12)[C@@H]1CCCN(CCCc2ccc3c(n2)NCCC3)C1 [Compound 623] | < 100 nM | < 100 nM
O=C(NC[C@@H](C(=O)O)c1cccc2cn([C@H]3CCC(F)(F)C3)nc12)[C@@H]1CCCN(CCCc2ccc3c(n2)NCCC3)C1 [Compound 624] | > 1000 nM | 100 to 1000 nM
C[C@@H]1C[C@@H](C(=O)NC[C@H](C(=O)O)c2cccc(-c3ccccc3)c2)CN(CCCc2ccc3c(n2)NCCC3)C1 [Compound 630] | > 1000 nM | > 1000 nM
C[C@H]1C[C@@H](C(=O)NC[C@H](C(=O)O)c2cccc(-c3ccccc3)c2)CN(CCCc2ccc3c(n2)NCCC3)C1 [Compound 631] | < 100 nM | < 100 nM
C[C@@H]1C[C@@H](C(=O)NC[C@H](C(=O)O)c2ccc3ccccc3c2)CN(CCCc2ccc3c(n2)NCCC3)C1 [Compound 632] | 100 to 1000 nM | 100 to 1000 nM
C[C@H]1C[C@@H](C(=O)NC[C@H](C(=O)O)c2ccc3ccccc3c2)CN(CCCc2ccc3c(n2)NCCC3)C1 [Compound 633] | < 100 nM | < 100 nM
C[C@@H]1C[C@H](C(=O)NC[C@H](C(=O)O)c2ccc3ccccc3c2)CN(CCCc2ccc3c(n2)NCCC3)C1 [Compound 634] | 100 to 1000 nM | 100 to 1000 nM
C[C@H]1C[C@H](C(=O)NC[C@H](C(=O)O)c2ccc3ccccc3c2)CN(CCCc2ccc3c(n2)NCCC3)C1 [Compound 635] | 100 to 1000 nM | 100 to 1000 nM
C[C@@H]1C[C@@H](C(=O)NC[C@@H](C(=O)O)c2ccc3ccccc3c2)CN(CCCc2ccc3c(n2)NCCC3)C1 [Compound 639] | 100 to 1000 nM | 100 to 1000 nM

Further lines, results first:

IC50 (αvβ6) | IC50 (αvβ1) | SMILES
< 100 nM | < 100 nM | O=C(NC[C@H](C(=O)O)c1cncc(-c2ccccc2)c1)[C@@H]1CCCN(CCCc2ccc3c(n2)NCCC3)C1 [Compound 620]
< 100 nM | < 100 nM | O=C(NC[C@H](C(=O)O)c1cccc(-c2ccccc2C(F)(F)F)c1)[C@@H]1CCCN(CCCc2ccc3c(n2)NCCC3)C1 [Compound 621]
100 to 1000 nM | 100 to 1000 nM | O=C(NC[C@H](C(=O)O)c1ccc(F)c(-c2ccccc2)c1F)[C@@H]1CCCN(CCCc2ccc3c(n2)NCCC3)C1 [Compound 622]
100 to 1000 nM | > 1000 nM | O=C(NC[C@@H](C(=O)O)c1cccc(-c2ccccc2C(F)(F)F)c1)[C@@H]1CCCN(CCCc2ccc3c(n2)NCCC3)C1 [Compound 625]
< 100 nM | < 100 nM | O=C(NC[C@@H](C(=O)O)c1ccc(F)c(-c2ccccc2)c1F)[C@@H]1CCCN(CCCc2ccc3c(n2)NCCC3)C1 [Compound 626]
< 100 nM | < 100 nM | O=C(NC[C@@H](C(=O)O)c1cncc(-c2ccccc2)c1)[C@@H]1CCCN(CCCc2ccc3c(n2)NCCC3)C1 [Compound 627]
< 100 nM | < 100 nM | O=C(O)C(CNC(=O)[C@@H]1CCCN(CCCc2ccc3c(n2)NCCC3)C1)c1cc(-c2ccccc2)ccn1 (stereo partly drawn) [Compound 628]
100 to 1000 nM | > 1000 nM | O=C(NC[C@H](C(=O)O)c1cc(F)cc(-c2cccc(F)c2)c1)[C@@H]1CCCN(CCCc2ccc3c(n2)NCCC3)C1 [Compound 629]
< 100 nM | < 100 nM | O=C(NC[C@@H](C(=O)O)c1cc(F)cc(-c2cccc(F)c2)c1)[C@@H]1CCCN(CCCc2ccc3c(n2)NCCC3)C1 [Compound 636]
< 100 nM | 100 to 1000 nM | C[C@@H]1C[C@H](C(=O)NC[C@H](C(=O)O)c2cccc(-c3ccccc3)c2)CN(CCCc2ccc3c(n2)NCCC3)C1 [Compound 637]
< 100 nM | < 100 nM | C[C@H]1C[C@H](C(=O)NC[C@H](C(=O)O)c2cccc(-c3ccccc3)c2)CN(CCCc2ccc3c(n2)NCCC3)C1 [Compound 638]
100 to 1000 nM | 100 to 1000 nM | C[C@@H]1C[C@@H](C(=O)NC[C@@H](C(=O)O)c2cccc(-c3ccccc3)c2)CN(CCCc2ccc3c(n2)NCCC3)C1 [Compound 640]
